Tested on: male Sprage Dawley rats
Test: L-NAME induced hypertension model, arterial blood pressure by tail-cuff method (Example 11)
Format: in vivo
Conditions: rat, L-NAME 40 mg/Kg in drinking water, oral gavage 100 mg/Kg (group 6, positive control)
Procedure: Thirty-six male Sprage Dawley rats (weight aprox. 200 at the beginning of the experiment) were obtained from Harlan Interfauna Iberica SA (Barcelona, Spain) and maintained during all the experiment in the installations of the animalary service at the University of Murcia. The animals were randomly distributed into six experimental groups of 6 rats each one, housed under standard conditions of lighting (day/night cycles of 12 h), temperature (22±2° C.) and humidity (60%).
During the setting period and the experimental periods, rats were feed on a solid standard diet for rats (Panlab). Drinking water and food were available ad libitum. After an setting period of 7 days, treatments according the experimental design were started.
In order to determine the effect of fortified extra virgin olive oil (evoo added with the olive extract according to the present invention) N-nitro-L-arginine-methylester (L-NAME) induced hypertension model was used.
Arterial blood pressure was measured with a periodicity according the above cronogramme, by the tail-cuff method. Before the measurement, rats were kept at 37° C. for 10 min to make the pulsations of the tail artery detectable. […] The arterial blood pressure measurements were performed at the same time of the day in order to avoid any influence of the circadian cycle.

C[C@H](CS)C(=O)N1CCC[C@H]1C(=O)O [Captopril]
systolic blood pressure: significant reduction of the blood pressure values
